In US20230235290A1, “RECOMBINANT CARDIOMYOCYTES AND CARDIOMYOCYTE CELL LINES EXPRESSING HERG” (The Governors of the University of Alberta, priority 2016, published 2023):

Assays:
[1] = tested on: hMYO-hERG cells; assay: SetuBlue cell viability (cell proliferation) assay, fluorometric, on hMYO-hERG cells; assay type: cell-based, human
Description: (§1) Ninety-six (96) well plate(s) were seeded with hMYO-hERG cells containing approximately 1×10^4 cells/well. The plates were first incubated for 24 hours at 37° C., 5% CO2, followed by incubation for 48 hours at 28° C., 5% CO2. The wells were then treated with compound(s) of interest for 48 hours at standard cell cultural conditions. A negative control medium without cells was included to determine background signal.
(§2) The cells were then assayed for toxicity using a SetuBlue™ Cell Proliferation Assay Kit (Fluorometric) (BioIntersect, Catalog #F6009-2500-A). This kit uses a Blue indicator dye, Resazurin, to measure the metabolic capacity of cells. Resazurin is a non-fluorescent, cell permeable and non-toxic compound. Viable cells efficiently reduce the Blue indicator dye to resorufin, which is highly fluorescent and an indicator of cell viability.
(§3) The SetuBlue cell proliferation assay was performed as follows. The old media was aspirated and replaced with fresh 100 μl medium containing 10% volume of SetuBlue reagent containing the Blue indicator dye. The plates were incubated using standard cultural conditions for 1-4 hrs. The plates were than shaken for 10-20 seconds before recording fluorescence at 530/590 nm in PerkinElmer EnSpire® multimode plate reader. The relative fluorescence unit (“RFU”) value of each control well was subtracted from all RFU value to yield corrected RFU values. The corrected RFU values at 530/590 nm (Y axis, Log10 scale) were plotted against concentration of test compound (X axis). The CC50 value were determined by locating the X-axis value corresponding to one-half the maximum (plateau) RFU value using GraphPad Prism software.

[2] = as above; assay type: cell-based, human; details: human; hMYO-hERG cells, 48 hours treatment, fluorescence 530/590 nm, GraphPad Prism
Description: as §1, §2, §3

[3] = molecular target: hERG (Homo sapiens, UniProt Q12809); details: literature statement; cited from earlier work
Sequence of hERG (Q12809 whole entry): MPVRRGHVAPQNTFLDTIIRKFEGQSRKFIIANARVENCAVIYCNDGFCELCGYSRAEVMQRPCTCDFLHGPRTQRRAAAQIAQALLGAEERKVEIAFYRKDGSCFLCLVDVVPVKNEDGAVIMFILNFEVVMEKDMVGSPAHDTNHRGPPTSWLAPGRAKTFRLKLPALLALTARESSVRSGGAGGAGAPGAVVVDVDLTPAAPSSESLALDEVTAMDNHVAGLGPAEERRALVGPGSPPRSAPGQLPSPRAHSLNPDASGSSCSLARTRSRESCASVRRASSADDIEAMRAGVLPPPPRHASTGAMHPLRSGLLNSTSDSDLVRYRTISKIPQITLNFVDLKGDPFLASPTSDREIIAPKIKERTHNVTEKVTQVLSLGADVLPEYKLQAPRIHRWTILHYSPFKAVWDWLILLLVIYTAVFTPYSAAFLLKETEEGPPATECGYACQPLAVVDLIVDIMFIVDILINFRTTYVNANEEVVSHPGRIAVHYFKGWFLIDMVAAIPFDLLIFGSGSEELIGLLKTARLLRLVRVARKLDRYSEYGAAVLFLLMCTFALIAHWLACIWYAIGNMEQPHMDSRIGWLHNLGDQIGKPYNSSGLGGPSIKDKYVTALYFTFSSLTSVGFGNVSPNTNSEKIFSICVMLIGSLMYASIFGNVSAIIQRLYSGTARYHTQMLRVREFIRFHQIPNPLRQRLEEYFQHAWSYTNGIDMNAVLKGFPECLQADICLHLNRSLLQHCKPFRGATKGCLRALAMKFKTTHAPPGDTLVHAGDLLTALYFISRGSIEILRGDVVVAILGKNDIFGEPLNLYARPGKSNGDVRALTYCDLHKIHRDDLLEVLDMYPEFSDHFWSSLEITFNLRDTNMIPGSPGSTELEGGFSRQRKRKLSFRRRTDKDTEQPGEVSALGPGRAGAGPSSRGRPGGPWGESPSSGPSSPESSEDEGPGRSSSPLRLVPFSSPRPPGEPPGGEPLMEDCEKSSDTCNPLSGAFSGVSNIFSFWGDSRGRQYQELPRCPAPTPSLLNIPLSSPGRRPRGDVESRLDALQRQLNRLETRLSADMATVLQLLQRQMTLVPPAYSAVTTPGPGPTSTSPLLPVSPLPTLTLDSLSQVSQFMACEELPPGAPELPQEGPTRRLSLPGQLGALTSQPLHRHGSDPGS

SMILES	concentrations at which cardiotoxic on the hMYO-hERG cell line ([1]; hMYO-hERG cells, 48 hours treatment, FIG. 12A)	CC50 at 48 h [2] [µM]	cardiotoxicity (known) [3]	hERG inhibitory activity (known) [3]	cardiotoxicity on the hMYO-hERG cells ([1]; at concentrations as high as 400 μM, compared to control vehicle at 400 μM)
COc1cccc2c1C(=O)c1c(O)c3c(c(O)c1C2=O)C[C@@](O)(C(=O)CO)C[C@@H]3O[C@H]1C[C@H](N)[C@H](O)[C@H](C)O1 [doxorubicin]	above 50 μM	42.3	long-term cardiotoxicity	only slight effects on hERG	
C=C[C@H]1C[N@@]2CC[C@H]1C[C@@H]2[C@@H](O)c1ccnc2ccc(OC)cc12 [quinidine]					not significantly cardiotoxic
